Data: PubChem BioAssay AID1918995 (Molecular Pharmacology Branch, DTP, NCI, 2023)

Tested on: 324938-238-R-J1-PDC complex spheroid growth, % test/control
Test: Anticancer human tumor 324938-238-R-J1-PDC patient-derived bladder carcinoma cell line growth inhibition [AhR]
Conditions: for viability, T/C: stronger effect = lower value
Summary of the method: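 Agents were dosed in half-log steps down from roughly clinical Cmax, or from 10 microM where Cmax was unknown, alone and with AhR antagonists. Read-out: percent test/control growth of tumor spheroids containing HUVEC and MSC stromal cells.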

[1] = curve of first compound, second compound 0.1 µM
[2] = curve of first compound, second compound 0.316 µM
[3] = curve of first compound, second compound 1 µM
[4] = curve of first compound, second compound 3.16 µM
[5] = curve of first compound, second compound 10 µM
[6] = second compound 0.1 µM, first compound 0.0316 µM
[7] = second compound 0.1 µM, first compound 0.1 µM
[8] = second compound 0.1 µM, first compound 0.316 µM
[9] = second compound 0.1 µM, first compound 1 µM
[10] = second compound 0.1 µM, first compound 3.16 µM
[11] = second compound 0.1 µM, first compound 10 µM
[12] = second compound 0.316 µM, first compound 0.0316 µM
[13] = second compound 0.316 µM, first compound 0.1 µM
[14] = second compound 0.316 µM, first compound 0.316 µM
[15] = second compound 0.316 µM, first compound 1 µM
[16] = second compound 0.316 µM, first compound 3.16 µM
[17] = second compound 0.316 µM, first compound 10 µM
[18] = second compound 1 µM, first compound 0.0316 µM
[19] = second compound 1 µM, first compound 0.1 µM
[20] = second compound 1 µM, first compound 0.316 µM
[21] = second compound 1 µM, first compound 1 µM
[22] = second compound 1 µM, first compound 3.16 µM
[23] = second compound 1 µM, first compound 10 µM
[24] = second compound 3.16 µM, first compound 0.0316 µM
[25] = second compound 3.16 µM, first compound 0.1 µM
[26] = second compound 3.16 µM, first compound 0.316 µM
[27] = second compound 3.16 µM, first compound 1 µM
[28] = second compound 3.16 µM, first compound 3.16 µM
[29] = second compound 3.16 µM, first compound 10 µM
[30] = second compound 10 µM, first compound 0.0316 µM
[31] = second compound 10 µM, first compound 0.1 µM
[32] = second compound 10 µM, first compound 0.316 µM
[33] = second compound 10 µM, first compound 1 µM
[34] = second compound 10 µM, first compound 3.16 µM
[35] = second compound 10 µM, first compound 10 µM
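Also: spheroids exposed to agents for seven days before viability read.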

Row | IC50 [1] [nM] | IC50 [2] [nM] | IC50 [3] [nM] | IC50 [4] [nM] | IC50 [5] [nM] | Structure (SMILES) | viability, T/C [6] [%] | viability, T/C [7] [%] | viability, T/C [8] [%] | viability, T/C [9] [%] | viability, T/C [12] [%] | viability, T/C [13] [%] | viability, T/C [14] [%] | viability, T/C [15] [%] | viability, T/C [18] [%] | viability, T/C [19] [%] | viability, T/C [20] [%] | viability, T/C [21] [%] | viability, T/C [24] [%] | viability, T/C [25] [%] | viability, T/C [26] [%] | other results
1 | < 31.6 | < 31.6 | < 31.6 | < 31.6 | < 31.6 | COc1cccc2c1C(=O)c1c(O)c3c(c(O)c1C2=O)CC(O)(C(=O)CO)CC3OC1CC(N)C(O)C(C)O1 (stereo unspecified) + CC(CO)NC(=O)c1cc(-c2ccc(Cl)cc2)nn(-c2cnn(C)c2)c1=O | 33.5 | 29.2 | 17.7 | 2.6 | 34.6 | 28.6 | 16.8 | 3.87 | 32.9 | 30.9 | 15.5 | 1.51 | 31 | 36.1 | 19.6 | viability, T/C [10]: 0.09%; viability, T/C [11]: 0.19%; viability, T/C [16]: 0.08%; viability, T/C [17]: 0.19%; viability, T/C [22]: 0.09%; viability, T/C [23]: 0.19%; viability, T/C [27]: 1.04%; viability, T/C [28]: 0.09%; viability, T/C [29]: 0.68%; viability, T/C [30]: 39.8%; viability, T/C [31]: 35.4%; viability, T/C [32]: 16.8%; viability, T/C [33]: 0.25%; viability, T/C [34]: 0.24%; viability, T/C [35]: 0.29%
2 | < 31.6 | < 31.6 | < 31.6 | < 31.6 | < 31.6 | COc1cccc2c1C(=O)c1c(O)c3c(c(O)c1C2=O)CC(O)(C(=O)CO)CC3OC1CC(N)C(O)C(C)O1 (stereo unspecified) + Cc1ccccc1N=Nc1ccc(NC(=O)c2ccnn2C)c(C)c1 | 34.7 | 29.3 | 18.9 | 4.96 | 37.7 | 35.9 | 13.8 | 4.13 | 35.1 | 31.4 | 16.4 | 3.09 | 34.7 | 31.7 | 15.9 | viability, T/C [10]: 0.1%; viability, T/C [11]: 0.15%; viability, T/C [16]: 0.05%; viability, T/C [17]: 0.13%; viability, T/C [22]: 0.05%; viability, T/C [23]: 0.12%; viability, T/C [27]: 3.16%; viability, T/C [28]: 0.08%; viability, T/C [29]: 0.13%; viability, T/C [30]: 38%; viability, T/C [31]: 37.6%; viability, T/C [32]: 22%; viability, T/C [33]: 5.73%; viability, T/C [34]: 0.14%; viability, T/C [35]: 0.2%
3 | 2650 | 2480 | 2970 | 8510 | < 31.6 | NS(=O)(=O)OCC1CC(n2ccc3c(NC4CCc5ccccc54)ncnc32)CC1O (stereo unspecified) + Cc1cncc(-c2nc(NCCc3c[nH]c4ccccc34)c3ncn(C(C)C)c3n2)c1 | 122 | 101 | 93.4 | 71.9 | 99.7 | 104 | 99.9 | 71 | 82.3 | 95.5 | 95.3 | 97.6 | 80 | 114 | 140 | viability, T/C [10]: 42.9%; viability, T/C [11]: 25.7%; viability, T/C [16]: 46.4%; viability, T/C [17]: 32.5%; viability, T/C [22]: 47.5%; viability, T/C [23]: 29.1%; viability, T/C [27]: 103%; viability, T/C [28]: 64.2%; viability, T/C [29]: 47.5%; viability, T/C [30]: 7.19%; viability, T/C [31]: 15.3%; viability, T/C [32]: 19%; viability, T/C [33]: 23%; viability, T/C [34]: 14.3%; viability, T/C [35]: 7.16%
4 | – | – | – | – | – | Cc1cncc(-c2nc(NCCc3c[nH]c4ccccc34)c3ncn(C(C)C)c3n2)c1 | – | – | – | – | – | – | – | – | – | – | – | – | – | – | – | IC50 (compound alone, run of 07/18/2022): 5.31 µM [middle of 23 runs]
5 | 37.1 | < 31.6 | < 31.6 | < 31.6 | < 31.6 | Nc1ccn(C2OC(CO)C(O)C2(F)F)c(=O)n1 (stereo unspecified) + Cc1ccccc1N=Nc1ccc(NC(=O)c2ccnn2C)c(C)c1 | 53.1 | 32.3 | 15.5 | 14.1 | 47.2 | 24.7 | 15.4 | 12.3 | 43.7 | 34.1 | 16.8 | 13.2 | 46.6 | 32.8 | 15.7 | viability, T/C [10]: 10.4%; viability, T/C [11]: 8.56%; viability, T/C [16]: 10.3%; viability, T/C [17]: 8.15%; viability, T/C [22]: 9.31%; viability, T/C [23]: 7.14%; viability, T/C [27]: 12.6%; viability, T/C [28]: 10.9%; viability, T/C [29]: 7.52%; viability, T/C [30]: 44.9%; viability, T/C [31]: 34.8%; viability, T/C [32]: 19.2%; viability, T/C [33]: 14.3%; viability, T/C [34]: 13.1%; viability, T/C [35]: 8.08%
6 | > 1000 | > 1000 | > 1000 | > 1000 | > 1000 | Nc1ncn(C2CC(O)C(CO)O2)c(=O)n1 (stereo unspecified) + Cc1ccccc1N=Nc1ccc(NC(=O)c2ccnn2C)c(C)c1 | 97.8 | 83.3 | 71.2 | 65.3 | 89.4 | 78.5 | 69.7 | 64.8 | 89.5 | 74.7 | 82.3 | 62 | 77.2 | 68.7 | 70 | viability, T/C (second compound 0.1 µM, first compound 0.00316 µM): 90.1%; viability, T/C (second compound 0.1 µM, first compound 0.01 µM): 94.7%; viability, T/C (second compound 0.316 µM, first compound 0.00316 µM): 81.9%; viability, T/C (second compound 0.316 µM, first compound 0.01 µM): 87.9%; viability, T/C (second compound 1 µM, first compound 0.00316 µM): 85.3%; viability, T/C (second compound 1 µM, first compound 0.01 µM): 83%; viability, T/C (second compound 3.16 µM, first compound 0.00316 µM): 74.9%; viability, T/C (second compound 3.16 µM, first compound 0.01 µM): 78.7%; viability, T/C [27]: 60.9%; viability, T/C (second compound 10 µM, first compound 0.00316 µM): 77.9%; viability, T/C (second compound 10 µM, first compound 0.01 µM): 76.1%; viability, T/C [30]: 78.6%; viability, T/C [31]: 73.6%; viability, T/C [32]: 73.4%; viability, T/C [33]: 60.7%
7 | > 10000 | > 10000 | > 10000 | > 10000 | < 31.6 | CC1COCCN1c1cc(C2(S(C)(=N)=O)CC2)nc(-c2ccnc3[nH]ccc23)n1 (stereo unspecified) + Cc1cncc(-c2nc(NCCc3c[nH]c4ccccc34)c3ncn(C(C)C)c3n2)c1 | 112 | 126 | 90.9 | 93.4 | 98.4 | 127 | 127 | 110 | 111 | 109 | 108 | 96.4 | 80.5 | 92.5 | 89.8 | viability, T/C [10]: 93.2%; viability, T/C [11]: 74.2%; viability, T/C [16]: 70.2%; viability, T/C [17]: 86.7%; viability, T/C [22]: 87.5%; viability, T/C [23]: 73.5%; viability, T/C [27]: 109%; viability, T/C [28]: 87.1%; viability, T/C [29]: 81.1%; viability, T/C [30]: 8.69%; viability, T/C [31]: 13.3%; viability, T/C [32]: 17.8%; viability, T/C [33]: 14.7%; viability, T/C [34]: 8.67%; viability, T/C [35]: 5.3%
